Consider 27 molecules from article PMC10860121 (ACS infectious diseases, 2023).

The test system of series [1] is Chloroquine-sensitive NF54 P. falciparum isolate. The series can be described thus: In vitro antiplasmodial activity, NF54. Type of series: cell-based, Plasmodium falciparum. The following applies: for pIC50: mean from n ≥ 2.
Series [2] is described as follows: In vitro intrinsic clearance in human liver microsomes. It counts as in vitro ADME. The settings on record: for microsomal CLint: human, liver microsomes, h CLint. (In general: Liver microsomes are vesicles of endoplasmic reticulum, rich in cytochrome P450 enzymes.)
The next series in a line: Chromatographic LogD7.4. It counts as physicochemical. The following applies: pH 7.4; for chromatographic logD: gradient HPLC, Phenomenex Synergi Hydro-RP column; for gLogD7.4: chromatographically determined.
Series [3] in a line: In vitro intrinsic clearance in mouse liver microsomes. Type of series: in vitro ADME.
Series [4] can be described thus: Kinetic solubility at pH 6.5 by nephelometry. The settings on record: pH 6.5 phosphate buffer, 1% DMSO, solubility range by nephelometry. Type of series: physicochemical.
Series [5] relates to rat skeletal myoblast L6 cell line. Kind of series: Cytotoxicity, growth inhibition of L6 cells. Type of series: cell-based. The following applies: read-out: L6 IC50, mean from n ≥ 2.
The mark [6] stands for this setting: Plasmodium falciparum, NF54, read-out: P. falciparum IC50, NF54.
The mark [7] stands for this setting: read-out: P. falciparum IC50, NF54.

pIC50: −log10 of the molar value. Where two headings read alike, the source gives them in different places. Some results are limits rather than exact numbers.

With `O=C1Nc2ccccc2C(=O)CCc2cc(O)ccc21` [Compound 34, 9-Hydroxy-11,12-dihydro-5H-dibenzo[b,g]azonine-6,13-dione], the negative logarithm of the IC50 (pIC50) in series [1] (setting [6]) was 4.82. In addition, the intrinsic clearance (microsomal CLint) in series [2] is 61 µL/min/mg; in series [3] it was 84 µL/min/mg. In addition, in “Chromatographic LogD7.4”, the chromatographic logD was determined as 1.1.
For `O=C1Nc2ccc(C(F)(F)F)cc2C(=O)CCc2ccccc21` [Compound 25, 2-(Trifluoromethyl)-11,12-dihydro-5H-dibenzo[b,g]-azonine-6,13-dione] the same measures were 8.03, 240 µL/min/mg, 79 µL/min/mg and 3.
Turning to `O=C1CCOc2ccccc2C(=O)Nc2ccccc21` [Compound 7, 6,7-Dihydro-8H-dibenzo[b,f][1,5]oxazecine-8,14-(13H)-dione], the “Kinetic Sol6.5” value in series [4] is >100 µg/mL. In addition, the pIC50 in series [1] (setting [7]) was 4.68; in series [5] it was 4.51. Further, the “fold less potent than 2 (antiplasmodial)” value in series [1] (relative to compound 2) was > 100 fold. For the same molecule, the gLogD7.4 in the series “Chromatographic LogD7.4” is listed as 2.0.
For the molecule `O=C1CCc2c(O)cccc2C(=O)Nc2ccccc21` [Compound 35, 10-Hydroxy-11,12-dihydro-5H-dibenzo[b,g]azonine-6,13-dione], the pIC50 in series [1] (setting [6]) was 5.29. In addition, the figures for the intrinsic clearance (microsomal CLint) in series [2] and in series [3] were 16 µL/min/mg and 60 µL/min/mg, respectively. Moreover, the chromatographic logD in “Chromatographic LogD7.4” is 1.3.
As for `O=C1Nc2ccc(OC(F)(F)F)cc2C(=O)CCc2ccccc21` [Compound 26, 2-(Trifluoromethoxy)-11,12-dihydro-5H-dibenzo-[b,g]azonine-6,13-dione], the pIC50 in series [1] (setting [6]) is 8.38. Further, the “in vitro selectivity index” value in series [1] (antiplasmodial selectivity, L6 cytotoxicity vs P. falciparum) is > 10,000. For the same molecule, the microsomal CLint in series [2] turned out to be 240 µL/min/mg. In “Chromatographic LogD7.4”, the gLogD7.4 is reported as > 3 and the chromatographic logD came to 3.1. The molecule also came in with an intrinsic clearance (microsomal CLint) in series [3] of 110 µL/min/mg.
As for `O=C1CCc2ccccc2CC(=O)c2ccccc2N1` [Compound 8, 8,13-Dihydrodibenzo[b,f]azecine-6,14(5H,7H)-dione], the pIC50 in series [1] (setting [6]) was 5.21. In series [1] (relative to compound 2), the “fold less potent than 2 (antiplasmodial)” value stood at 33 fold. Further, the figures for the microsomal CLint in series [2] and in series [3] were < 7 µL/min/mg and 18 µL/min/mg, respectively. The chromatographic logD in “Chromatographic LogD7.4” is 2.1.
`O=C1CCc2ccccc2C(=O)N2CCCc3cccc1c32` [Compound 15, 2,3,8,9-Tetrahydro-1H-benzo[7,8]azonino[3,2,1-i,j]-quinoline-7,14-dione]: the “Kinetic Sol6.5” value in series [4] is 25 to 50 µg/mL. The negative-log IC50 (pIC50) in series [1] (setting [7]) was 4.00; in series [5], 4.08. Also, the “h CLint” value in series [2] is recorded as 310 μL/min/mg protein. Further, the gLogD7.4 in “Chromatographic LogD7.4” worked out at 2.9. For the same molecule, the “m CLint” value in series [3] is > 870 μL/min/mg protein.
For the molecule `COc1ccc2c(c1)C(=O)CCc1ccccc1C(=O)N2` [Compound 17, 2-Methoxy-11,12-dihydro-5H-dibenzo[b,g]azonine-6,13-dione], in series [1] (setting [6]), the negative-log IC50 (pIC50) is 7.43. The “fold more potent than 2 (antiplasmodial)” value in series [1] (relative to compound 2) was “roughly 5 fold”. The figures for the microsomal CLint in series [2] and in series [3] were 23 µL/min/mg and 440 µL/min/mg, respectively. The chromatographic logD in the series “Chromatographic LogD7.4” turned out to be 2.1.
On to `N#Cc1ccc2c(c1)C(=O)CCc1ccccc1C(=O)N2` [Compound 22, 6,13-Dioxo-6,11,12,13-tetrahydro-5H-dibenzo[b,g]-azonine-2-carbonitrile], for which the negative-log IC50 (pIC50) in series [1] (setting [6]) was 6.15. Besides, the “fold less potent than 2 (antiplasmodial)” value in series [1] (relative to compound 2) was found to be 3.7 fold. In addition, the figures for the microsomal CLint in series [2] and in series [3] were 23 µL/min/mg and 20 µL/min/mg, respectively. Besides, in “Chromatographic LogD7.4”, the chromatographic logD stood at 2.1.
Regarding `CN1C(=O)c2ccccc2CCC(=O)c2ccccc21` [Compound 14, 5-Methyl-11,12-dihydro-5H-dibenzo[b,g]azonine-6,13-dione], the negative logarithm of the IC50 (pIC50) in series [1] (setting [6]) is 4.11. Besides, the microsomal CLint came out at 110 µL/min/mg in series [2] and 220 µL/min/mg in series [3]. Moreover, in the series “Chromatographic LogD7.4”, the chromatographic logD was 2.4.
The matching figures for `CO/N=C1\CCc2ccccc2C(=O)Nc2ccccc21` [Compound 11, (E)-13-(Methoxyimino)-5,11,12,13-tetrahydro-6H-dibenzo[b,g]azonin-6-one]: 4.02, 11 µL/min/mg, 54 µL/min/mg and 2.5.
Take `CS(=O)(=O)c1ccc2c(c1)C(=O)CCc1ccccc1C(=O)N2` [Compound 23, 2-(Methylsulfonyl)-11,12-dihydro-5H-dibenzo[b,g]-azonine-6,13-dione]: the negative logarithm of the IC50 (pIC50) in series [1] (setting [6]) was 5.28. Also, the intrinsic metabolic clearance (microsomal CLint) in series [2] turned out to be 46 µL/min/mg; in series [3], 19 µL/min/mg. In “Chromatographic LogD7.4”, the chromatographic logD came out at 1.6.
On to `O=C1Nc2ccccc2C(O)CCc2ccccc21` (stereo not shown) [Compound 12, 13-hydroxy-5,11,12,13-tetrahydro-6H-dibenzo[b,g]azonin-6-one], for which the negative logarithm of the IC50 (pIC50) in series [1] (setting [6]) was 4.08. The intrinsic metabolic clearance (microsomal CLint) was 11 µL/min/mg in series [2] and 27 µL/min/mg in series [3]. In addition, in “Chromatographic LogD7.4”, the chromatographic logD worked out at 1.5.
The matching figures for `O=C1Nc2ccccc2C(=O)CCc2ccc(O)cc21` [Compound 37, 8-Hydroxy-11,12-dihydro-5H-dibenzo[b,g]azonine-6,13-dione]: 5.96, 7 µL/min/mg, 36 µL/min/mg and 1.2.
For `O=C1Nc2ccccc2CCCc2ccccc21` [Compound 13, 5,11,12,13-Tetrahydro-6H-dibenzo[b,g]azonin-6-one] the same measures were 4.00, 62 µL/min/mg, 81 µL/min/mg and 2.6.
For `O=C1CCc2ncccc2C(=O)Nc2ccccc21` [Compound 30, 12,13-Dihydro-5H-benzo[b]pyrido[2,3-g]azonine-5,11(6H)-dione] the same measures were 5.03, 19 µL/min/mg, 18 µL/min/mg and 0.9.
On to `O=C1Nc2ccccc2C(=O)CCc2ccc(F)cc21` [Compound 36, 8-Fluoro-11,12-dihydro-5H-dibenzo[b,g]azonine-6,13-dione], for which, in series [1] (setting [6]), the pIC50 is 5.89. Also, the microsomal CLint came out at 13 µL/min/mg in series [2] and 43 µL/min/mg in series [3]. In “Chromatographic LogD7.4”, the chromatographic logD is 2.1.
The matching figures for `N#Cc1ccc2c(c1)CCC(=O)c1ccccc1NC2=O` [Compound 33, 6,13-Dioxo-6,11,12,13-tetrahydro-5H-dibenzo[b,g]-azonine-9-carbonitrile]: 6.41, < 7 µL/min/mg, 160 µL/min/mg and 2.
For `NC(=O)c1ccc2c(c1)C(=O)CCc1ccccc1C(=O)N2` [Compound 20, 6,13-Dioxo-6,11,12,13-tetrahydro-5H-dibenzo[b,g]-azonine-2-carboxamide] the same measures were 4.62, < 7 µL/min/mg, 10 µL/min/mg and 0.8.
The matching figures for `O=C1Oc2ccccc2C(=O)CCc2ccccc21` [Compound 16, 11,12-Dihydrodibenzo[b,g]oxonine-6,13-dione]: 4.00, 14 µL/min/mg, 16 µL/min/mg and 3.7.
`O=C1Nc2ccccc2C(=NO)CCc2ccccc21` [Compound 10, 13-(Hydroxyimino)-5,11,12,13-tetrahydro-6H-dibenzo[b,g]azonin-6-one]: the pIC50 in series [1] (setting [6]) was < 3.72. The intrinsic metabolic clearance (microsomal CLint) in series [2] stood at 22 µL/min/mg; in series [3], 76 µL/min/mg. In addition, the chromatographic logD in the series “Chromatographic LogD7.4” came to 1.8.
For `O=C1Nc2ccccc2C(=O)CCCc2ccccc21` [Compound 6, 6,7-Dihydrodibenzo[b,h]azecine-8,14(5H,13H)-dione], the pIC50 in series [1] (setting [6]) was 6.12. Also, the “fold less potent than 2 (antiplasmodial)” value in series [1] (relative to compound 2) came out at 4 fold. In addition, the microsomal CLint worked out at 14 µL/min/mg in series [2] and 31 µL/min/mg in series [3]. The chromatographic logD in “Chromatographic LogD7.4” came to 1.9.
On to `O=C1Nc2ccc(S(F)(F)(F)(F)F)cc2C(=O)CCc2ccccc21` [Compound 27, 2-(Pentafluoro-λ^6-sulfaneyl)-11,12-dihydro-5H-dibenzo[b,g]azonine-6,13-dione], for which the pIC50 in series [1] (setting [6]) is 8.38. The figures for the microsomal CLint in series [2] and in series [3] were 190 µL/min/mg and 71 µL/min/mg, respectively. Further, the gLogD7.4 in “Chromatographic LogD7.4” is given as > 3. Further, in the series “Chromatographic LogD7.4”, the chromatographic logD was 3.3.
`O=C1CCc2ccccc2C(=O)c2ccccc2N1` [Compound 9, 7,8-Dihydro-5H-dibenzo[b,e]azonine-6,13-dione]: the pIC50 in series [1] (setting [6]) is 5.34. Besides, the microsomal CLint in series [2] turned out to be 7 µL/min/mg; in series [3], 14 µL/min/mg. Further, the chromatographic logD in the series “Chromatographic LogD7.4” worked out at 1.9.
For `O=C1Nc2ccc(C(=O)N3CCOCC3)cc2C(=O)CCc2ccccc21` [Compound 21, 2-(Morpholine-4-carbonyl)-11,12-dihydro-5H-dibenzo[b,g]azonine-6,13-dione] the same measures were 5.11, 11 µL/min/mg, 15 µL/min/mg and 1.3.
For `O=C1Nc2ccc(F)cc2C(=O)CCc2ccccc21` [Compound 24, 2-Fluoro-11,12-dihydro-5H-dibenzo[b,g]azonine-6,13-dione] the same measures were 7.25, 38 µL/min/mg, 74 µL/min/mg and 2.2.
Take `O=C(O)c1ccc2c(c1)C(=O)CCc1ccccc1C(=O)N2` [Compound 19, 6,13-Dioxo-6,11,12,13-tetrahydro-5H-dibenzo[b,g]-azonine-2-carboxylic Acid]: the pIC50 in series [1] (setting [6]) is 3.80. For the same molecule, the microsomal CLint in series [2] was 12 µL/min/mg; in series [3], < 7 µL/min/mg. Also, in “Chromatographic LogD7.4”, the chromatographic logD was < 0.

By pIC50 is commonly meant −log10 of the IC50, conventionally taken in molar units. By microsomal CLint is commonly meant a measure of how fast metabolising enzymes remove a compound, apart from limits set by blood flow. For orientation: chromatographic logD means lipophilicity estimated from chromatographic retention.
